Patent publication US9260759B2, “Pyrazoloanthrone and derivatives thereof for the treatment of cancers expressing MISRII” (The General Hospital Corporation, priority 2007, dated 2016)
Like-named read-outs stand apart in the source and are kept apart here.

What was measured:
rat MISRII = target: T1, rat MISRII (Rattus norvegicus, UniProt Q62893); experiment: BRE-luciferase reporter assay in COS7 cells transfected with MISRII; format: cell-based
T1 construct: expressed in transfected cells; host or cells: COS7
T1 sequence (Q62893 18-557): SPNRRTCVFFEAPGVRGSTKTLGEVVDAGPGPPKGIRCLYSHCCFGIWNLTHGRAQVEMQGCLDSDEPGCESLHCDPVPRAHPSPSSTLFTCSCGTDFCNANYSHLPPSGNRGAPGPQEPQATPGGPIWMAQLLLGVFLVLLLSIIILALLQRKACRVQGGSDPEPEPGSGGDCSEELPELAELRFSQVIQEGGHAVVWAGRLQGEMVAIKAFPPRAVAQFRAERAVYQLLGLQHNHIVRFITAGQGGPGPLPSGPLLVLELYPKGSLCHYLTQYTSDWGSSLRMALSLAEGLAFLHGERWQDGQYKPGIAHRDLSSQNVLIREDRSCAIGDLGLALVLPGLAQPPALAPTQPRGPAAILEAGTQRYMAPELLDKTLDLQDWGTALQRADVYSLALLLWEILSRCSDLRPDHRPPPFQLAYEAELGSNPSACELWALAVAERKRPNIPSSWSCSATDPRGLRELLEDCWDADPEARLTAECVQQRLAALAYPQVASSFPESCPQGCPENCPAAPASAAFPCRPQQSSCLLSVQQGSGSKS
Excerpt: COS7 cells were transiently transfected with MISRH, BRE-Luciferase and phRL-CMV. […] Control cells were transfected with a control plasmid (EGFP-N1 plasmid) instead of the receptor plasmid to keep the total DNA transfected constant. The results shown are the fold-induction over vehicle treated cells and normalized to phRL-CMV expression to correct for variations in cell number and transfection efficiency. […] The results represent the mean values from three independent experiments performed in triplicates (Error bars represent SEM, *p<0.05, **p<0.001).
To identify molecules that interact with the MISRII, we developed a reporter assay where binding to MISRII activates a firefly luciferase reporter driven by the BMP-responsive element (BRE) promoter kindly provided by Dr. Peter ten Dijke (The Netherlands Cancer Institute, The Netherlands) The BMP promoter region on mouse M. mus is located on chromosome 2 (Chr2) and corresponds to RefSeq No: NT—039207.6 93504644-93506272 (SEQ ID NO:1). The BRE-luciferase reporter (Korchynskyi and ten Dijke, 2002, Logeart-Avramoglou, 2006) has multiple optimized BMP response elements (3 SBE, 7 GC, and 4 CAGC) driving the expression of the firefly luciferase. This reporter construct together with a control Renilla luciferase reporter phRL-CMV (Promega, Madison Wis.) and a rat MISRII cDNA expression construct (Teixeira, 1996) were transiently transfected into COST cells and plated in 384 well plates. Primary screens were performed at the Harvard Institute of Chemistry and Cell Biology screening facility. Compounds from chosen libraries were added at a volume of 100 nl at 5 mg/ml concentration in DMSO into 30 μl cell media and cultured for 24 h at 37° C., after which the luciferase activity was measured with reagents from Promega according to the manufacturer's instructions. A hit was identified as causing a fold induction over the plate median and each compound was tested in duplicate in separate plates. MIS was used to control for intra- and inter-assay variability.
COS7 cells were plated at a density of 5000 cells/well in 96-well plates for secondary screens. The day after plating cells were transfected with rat MISRII receptor or EGFP-N1 (Clontech, Mountain View Calif.) together with BRE firefly luciferase reporter construct and phRL-CMV using TransIT-LT1 transfection reagent (Mirus Bio Corporation, Madison Wis.). […] Results were obtained using the Dual Luciferase reporter assay according to the manufacturer's instructions (Promega). Plates were read in a Wallac Victor2 luminometer (PerkinElmer, Wellesley Mass.).

c-jun = experiment: Western blot of anisomycin-induced c-jun phosphorylation in MOVCAR cells; format: cell-based, mouse
Description: (§1) The results are representative of several experiments.
(§2) Cells were washed in PBS and lysates were prepared in 1× Passive lysis buffer (PLB) provided with the Dual luciferase reporter assay kit (Promega). The lysates were cleared by centrifugation and the protein concentration was determined by Bradford assay (Bio-Rad, Hercules Calif.). […] of protein were loaded onto a NuPAGE 4-12% Bis-Tris gradient gel with MOPS-buffer (Invitrogen, Carlsbad Calif.) for polyacrylamide gel electrophoresis. Following transfer to a nitrocellulose by electroblotting, the membrane was blocked in 5% milk Tris-buffered saline/Tween20 (TBS-T) for 1 h at room temperature and incubated with primary antibody (pJNK, c-jun and phosph c-jun antibodies were purchased from Cell Signalling, Danvers, Mass.; amd JNK antibody was published from Santa Cruz Biotechnology, Calif.) overnight at 4° C. in 5% BSA followed by incubation with secondary horseradish peroxidase conjugated anti-rabbit antibody (Jackson ImmunoResearch, Westgrove Pa.) for 1 h. Immunoreactive proteins were detected by enhanced chemiluminescence (Pierce, Rockford Ill.). Anisomycin was purchased from Calbiochem.
(§3) The known Jun kinase activator anisomycin was used as a positive control (Hazzalin, 1998). […] Further, MIS had no effect on phosphorylation of JNK by anisomycin.

JNK = experiment: Immunoblot of JNK phosphorylation in MOVCAR7 cells; format: cell-based, mouse
Description: as §1, §2, §3

MOVCAR7 cells = experiment: MTT proliferation assay, MOVCAR7 cells; format: cell-based; conditions: Mus musculus, 168 h
Description: Cells were plated in 96-well plates and treated the day after. Seven days after plating the cell survival was measured using 3-(4,5-dimethylthiazol-2-yl)-2,5-diphenyltetrazolium bromide substrate and measuring the absorbance at 550 nm.
(Connolly, 2003). The 4306 cells were provided by Dr. Daniela Dinulescu, Brigham and Women's (Boston) (30). Cells were plated at a density of 1000 cells/well in 96-well plates and treated 24 h later. The cell proliferation was measured after 7 days by registering the absorbance at 550 nm. Paclitaxel was manufactured by Ivax Pharmaceuticals and obtained from the MGH pharmacy.
The cells were treated for 7 days and the proliferation was measured by spectrophotometry. To exclude cytotoxic effects on the cells unrelated to MIS signal transduction, we used untransfected COS7 cells as a negative control. […] Paclitaxel is used in treatment of a wide range of tumors, but the side effects can be debilitating (Pieretti-Vanmarcke, 2006a, Pieretti-Vanmarcke, 2006b).

MISRIIK228R = target: T2, MISRIIK228R (Rattus norvegicus, UniProt Q62893, K228R); experiment: BRE-luciferase reporter assay in COS7 cells with kinase-deficient receptor MISRIIK228R; format: cell-based; conditions: K228R receptor overexpressed, COS7, 24 hrs, agent alone
T2 construct: expressed in transfected cells; host or cells: COS7
T2 sequence (Q62893 18-557 K228R): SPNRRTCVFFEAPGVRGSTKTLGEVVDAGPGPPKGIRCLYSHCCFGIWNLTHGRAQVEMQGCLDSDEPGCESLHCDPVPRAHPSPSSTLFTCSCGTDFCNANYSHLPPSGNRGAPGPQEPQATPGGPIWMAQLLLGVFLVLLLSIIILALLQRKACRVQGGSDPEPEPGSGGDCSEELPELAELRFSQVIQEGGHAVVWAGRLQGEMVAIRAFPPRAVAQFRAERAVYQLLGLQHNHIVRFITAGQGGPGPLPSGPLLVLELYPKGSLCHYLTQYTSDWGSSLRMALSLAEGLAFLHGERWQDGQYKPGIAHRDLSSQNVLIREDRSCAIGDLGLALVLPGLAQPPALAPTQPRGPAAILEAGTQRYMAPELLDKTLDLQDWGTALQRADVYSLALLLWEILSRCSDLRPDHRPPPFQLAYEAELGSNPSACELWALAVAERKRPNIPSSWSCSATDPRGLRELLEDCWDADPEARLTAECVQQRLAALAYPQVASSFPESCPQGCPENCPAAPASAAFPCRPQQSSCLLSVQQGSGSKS
Excerpt: Results shown represent the mean values from four independent experiments performed in triplicates (Error bars represent standard error of the mean, *, P<0.05).

endogenous MISRII = target: T3, endogenous MISRII (Mus musculus, UniProt Q8K592); experiment: BRE-luciferase reporter assay in MOVCAR7 cells expressing endogenous MISRII; format: cell-based; conditions: 5 μg/ml MIS, MOVCAR7, 24 h
T3 construct: a mouse ovarian cancer cell line, MOVCAR7, that expresses endogenous MISRII; endogenous in cells; host or cells: MOVCAR7 (mouse ovarian cancer cell line)
T3 sequence (Q8K592 16-568): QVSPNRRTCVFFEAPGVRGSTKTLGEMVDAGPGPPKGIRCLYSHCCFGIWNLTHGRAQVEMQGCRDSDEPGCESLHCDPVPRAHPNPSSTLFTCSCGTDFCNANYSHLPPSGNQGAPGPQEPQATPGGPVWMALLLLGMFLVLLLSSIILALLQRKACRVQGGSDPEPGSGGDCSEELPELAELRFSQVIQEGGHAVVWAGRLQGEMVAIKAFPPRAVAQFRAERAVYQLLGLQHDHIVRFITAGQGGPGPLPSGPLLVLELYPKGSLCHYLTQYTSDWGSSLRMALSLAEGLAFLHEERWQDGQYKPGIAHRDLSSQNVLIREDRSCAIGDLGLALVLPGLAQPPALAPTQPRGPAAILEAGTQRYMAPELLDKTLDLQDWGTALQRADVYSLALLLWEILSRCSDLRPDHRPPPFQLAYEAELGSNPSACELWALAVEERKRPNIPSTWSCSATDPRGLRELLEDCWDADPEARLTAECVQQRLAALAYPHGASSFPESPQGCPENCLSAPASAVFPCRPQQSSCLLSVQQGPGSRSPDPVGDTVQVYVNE

## CCOc1nc(NC(=O)Cc2cc(OC)ccc2OC)cc(N)c1C#N [JNK inhibitor VIII, reference compound]
Rat MISRII; JNK inhibitor VIII 5, 25 or 50 μM with MIS
  effect on BRE-luciferase when combined with MIS: no further effect
Rat MISRII; JNK inhibitor VIII at 5, 25 or 50 μM alone, COS7
  activation of BRE-luciferase: did not result in any activation
c-jun
  inhibiting phosphorylation of c-jun, compared with SP600125: much more effective
c-jun; pre-treatment 25 uM
  c-jun phosphorylation induced by 500 nM anisomycin: inhibited

## COc1ccc(C[C@H]2NC[C@H](O)[C@H]2OC(C)=O)cc1 [anisomycin, reference compound]
JNK; 500 nM anisomycin, 30 min
  phosphorylation of JNK (positive control): strong activation

## CC(=O)O[C@H]1C(=O)[C@@]2(C)[C@H]([C@H](OC(=O)c3ccccc3)[C@]3(O)C[C@H](OC(=O)[C@H](O)[C@@H](NC(=O)c4ccccc4)c4ccccc4)C(C)=C1C3(C)C)[C@]1(OC(C)=O)CO[C@@H]1C[C@@H]2O [paclitaxel]
MOVCAR7 cells; read-out: IC50 of paclitaxel combined with SP600125
  IC50: 210 pM
MOVCAR7 cells; MOVCAR7, 7 days, MTT, read-out: IC50 of paclitaxel alone
  IC50: 810 pM

B1: MIS: Recombinant human MIS prepared from Chinese hamster ovary cells stably transfected with the human MIS gene (protein)
chain: LRAEEPAVGTSGLIFREDLDWPPGSPQEPLCLVALGGDSNGSSSPLRVVGALSAYEQAFLGAVQRARWGPRDLATFGVCNTGDRQAALPSLRRLGAWLRDPGGQRLVVLHLEEVTWEPTPSLRFQEPPPGGAGPPELALLVLYPGPGPEVTVTRAGLPGAQSLCPSRDTRYLVLAVDRPAGAWRGSGLALTLQPRGEDSRLSTARLQALLFGDDHRCFTRMTPALLLLPRSEPAPLPAHGQLDTVPFPPPRPSAELEESPPSADPFLETLTRLVRALRVPPARASAPRLALDPDALAGFPQGLVNLSDPAALERLLDGEEPLLLLLRPTAATTGDPAPLHDPTSAPWATALARRVAAELQAAAAELRSLPGLPPATAPLLARLLALCPGGPGGLGDPLRALLLLKALQGLRVEWRGRDPRGPGRAQRSAGATAADGPCALRELSVDLRAERSVLIPETYQANNCQGVCGWPQSDRNPRYGNHVVLLLKMQVRGAALARPPCCVPTAYAGKLLISLSEERISAHHVPNMVATECGCR
Rat MISRII; MIS 0.5 ug/ml alone, MISRII-transfected COS7, 24 h
  BRE-luciferase expression, fold induction: greater than ten-fold
MISRIIK228R
  activation of BRE-luciferase with kinase-deficient receptor: neither MIS nor SP600125 activates BRE-luciferase
Endogenous MISRII
  increase of BRE activity compared to untreated cells: 2 fold
JNK; 5 μg/ml MIS, 30 min
  phosphorylation of JNK: no phosphorylation beyond background
JNK; MIS with anisomycin
  effect of MIS on phosphorylation of JNK by anisomycin: no effect
